The test system of this assay is Plasmopara viticola. As to the kind of experiment: activity against peronospora of grapevines caused by Plasmopara viticola (protective spray on potted vines). The class given is in vivo, Plasmopara viticola on vines of the cultivar "Riesling". The following applies: individual active compound, untreated control 88% infection. The method, then: The active compounds, separately or jointly, were prepared as a stock solution comprising 0.25% by weight of active compound in acetone or DMSO. 1% by weight of the emulsifier Uniperol® EL (wetting agent having emulsifying and dispersant action based on ethoxylated alkylphenols) was added to this solution, and the mixture was diluted with water to the desired concentration.
Use example—activity against peronospora of grapevines caused by Plasmopara viticola
Leaves of potted vines of the cultivar “Riesling” were sprayed to runoff point with an aqueous suspension having the concentration of active compound stated below. The next day, the undersides of the leaves were inoculated with an aqueous zoospore suspension of Plasmopara viticola. The grapevines were then initially placed in a water-vapor-saturated chamber at 24° C. for 48 hours and then in a greenhouse at 20-30° C. for 5 days. After this period of time, the plants were again placed in a humid chamber for 16 hours to promote sporangiophore eruption. The extent of the development of the disease on the undersides of the leaves was then determined visually.
The visually determined percentages of infected leaf areas were converted into efficacies in % of the untreated control:
The efficacy (E) is calculated as follows using Abbot's formula: […]
α corresponds to the fungicidal infection of the treated plants in % and β corresponds to the fungicidal infection of the untreated (control) plants in %
An efficacy of 0 means that the infection level of the treated plants corresponds to that of the untreated control plants; an efficacy of 100 means that the treated plants were not infected.
The expected efficacies of mixtures of active compounds were determined using Colby's formula (Colby, S. R. “Calculating synergistic and antagonistic responses of herbicide combinations”, Weeds, 15, 20-22, 1967) and compared with the observed efficacies.
E expected efficacy, expressed in % of the untreated control, when using the mixture of the active compounds A and B at the concentrations a and b x efficacy, expressed in % of the untreated control, when using the active compound A at the concentration a y efficacy, expressed in % of the untreated control, when using the active compound B at the concentration b

`CC1CCN(c2c(-c3c(F)cc(F)cc3F)c(Cl)nc3ncnn23)CC1` [compound I, 5-chloro-7-(4-methylpiperidin-1-yl)-6-(2,4,6-trifluorophenyl)[1,2,4]triazolo[1,5-a]pyrimidine]: the “Efficacy in % of the untreated control” value by setting is: (16 ppm in the spray liquor) 55%; (63 ppm in the spray liquor) 66%.
The matching figures for `Cc1ccc(N(SC(F)(Cl)Cl)S(=O)(=O)N(C)C)cc1` [compound II, N-dichlorofluoromethylthio-N′,N′-dimethyl-N-p-tolylsulfamide]: 0% and 21%.

For the origin of these results see patent US20080153700A1, “Fungicidal Mixtures” (Basf Aktiengesellschaft, priority 2004, published 2008).
